What was measured:
[1] = tested on: E. coli ATCC 25922; assay: microbe, parasite or virus in culture
Description: (§1) The MIC were determined by a micro dilution method in Mueller-Hinton broth (MHB) ([Cuenca-Estrella et al., 2010]). The final concentration of bacterial suspension in MHB were 1.0×10^6 CFU/mL. The final concentration of MR-22 ranged 1 ~ 256 μg/mL in 96 wells plate broth at 37°C for 16~18 h. Imipenem was employed as positive control, bacterial grown without treatment as negative control and MHB as blank control. MIC determination was performed by reading the OD600 nm. Take 100 μL samples in holes that have never seen bacterial growth and place them on the LB agar board. The concentration of MR-22 with no bacterial growth was defined as the MBC.

[2] = tested on: E. coli clinical strain E01; assay: microbe, parasite or virus in culture
Description: (§2) The clinical strains used in this study were obtained from a tertiary healthcare facility located in Guiyang, a city situated within the Guizhou Province of China. The E. coli ATCC 25922 was obtained from the Key and Characteristic Laboratory of Modern Pathogen Biology at Guizhou Medical University in Guiyang, China. All strains were stored at –80°C in LB medium and routinely cultured at LB medium at 37°C.
as §1

[3] = tested on: E. coli clinical strain E02; assay: microbe, parasite or virus in culture
Description: as §2, §1

[4] = tested on: E. coli clinical strain E03; assay: microbe, parasite or virus in culture
Description: as §2, §1

[5] = tested on: E. coli clinical strain E04; assay: microbe, parasite or virus in culture
Description: as §2, §1

[6] = tested on: E. coli clinical strain E05; assay: microbe, parasite or virus in culture
Description: as §2, §1

[7] = tested on: E. coli clinical strain E06; assay: microbe, parasite or virus in culture
Description: as §2, §1

[8] = tested on: E. coli clinical strain E07; assay: microbe, parasite or virus in culture
Description: as §2, §1

[9] = tested on: E. coli clinical strain E08; assay: microbe, parasite or virus in culture
Description: as §2, §1

[10] = tested on: E. coli clinical strain E09; assay: microbe, parasite or virus in culture
Description: as §2, §1

[11] = tested on: E. coli clinical strain E10; assay: microbe, parasite or virus in culture
Description: as §2, §1

[12] = tested on: E. coli clinical strain E11; assay: microbe, parasite or virus in culture
Description: as §2, §1

[13] = tested on: E. coli clinical strain E12; assay: microbe, parasite or virus in culture
Description: as §2, §1

[14] = tested on: E. coli clinical strain E13; assay: microbe, parasite or virus in culture
Description: as §2, §1

[15] = tested on: E. coli clinical strain E14; assay: microbe, parasite or virus in culture
Description: as §2, §1

[16] = tested on: E. coli clinical strain E15; assay: microbe, parasite or virus in culture
Description: as §2, §1

[17] = tested on: E. coli clinical strain E16; assay: microbe, parasite or virus in culture
Description: as §2, §1

[18] = tested on: E. coli clinical strain E17; assay: microbe, parasite or virus in culture
Description: as §2, §1

[19] = tested on: E. coli clinical strain E18; assay: microbe, parasite or virus in culture
Description: as §2, §1

[20] = tested on: E. coli clinical strain E19; assay: microbe, parasite or virus in culture
Description: as §2, §1

[21] = tested on: E. coli clinical strain E20; assay: microbe, parasite or virus in culture
Description: as §2, §1

[22] = tested on: E. coli clinical strain E21; assay: microbe, parasite or virus in culture
Description: as §2, §1

[23] = tested on: E. coli clinical strain E22; assay: microbe, parasite or virus in culture
Description: as §2, §1

[24] = tested on: E. coli ATCC 25922 and clinically drug resistant isolated strains; assay: microbe, parasite or virus in culture; type: cell-based, Escherichia coli; settings: Escherichia coli; E. coli ATCC 25922 and 22 clinical isolates; microdilution, MHB; read-out: MIC over all strains tested
Description: as §1

[25] = tested on: E. coli E19; assay: Mice peritonitis model; type: in vivo; settings: C57BL/6J mice, E19 peritonitis; 10 mg/kg 1 h after infection; after 36 h; ten mice per group; control group 8.73 ± 0.38
Description: This study utilized female C57BL/6J mice aged 6-8 weeks, weight range of 18-20 g, which were obtained from SPF Biotechnology Co., Ltd (Beijing, China). The animals were housed under maintained on a standard 12 h light/12 h dark cycle. All animal experiments were conducted in accordance with the Ethical Principles in Animal Research adopted by Guizhou Medical University and were approved by the Institutional Animal Care and Use Committee.
To evaluate the in vivo efficacy of MR-22, we used a mice peritonitis model. A total of 60 mice were divided into three groups: treatment group (10 mg/kg MR-22, intraperitoneal injection), positive control group (10 mg/kg imipenem, intraperitoneal injection), and normal control group (PBS, intraperitoneal injection). Peritonitis was induced by intraperitoneal injection of 1.0 × 10^8 CFU bacterial inoculum in 0.2 mL of E. coli E19. Survival rates were recorded every 12 h for 7 days.
To study the protective effects of MR-22, 10 mice in each group were sacrificed, and peritoneal lavage fluid, blood, liver, and kidney were collected 36 h after administration. The number of colonies in peritoneal lavage fluid and blood were determined by culturing on LB agar, while the tissues were fixed in 4% paraformaldehyde and subjected to hematoxylin and eosin staining to study the morphology.

C[C@@H](O)[C@H]1C(=O)N2C(C(=O)O)=C(SCCN=CN)C[C@H]12 [IPM, imipenem]
≤ 1 mg/L: MIC ([1]; Escherichia coli, ATCC25922, 18 h) | MIC ([2]; Escherichia coli, 18 h) | MIC ([3]; Escherichia coli, 18 h) | MIC ([4]; Escherichia coli, 18 h) | MIC ([5]; Escherichia coli, 18 h) | MIC ([6]; Escherichia coli, 18 h) | MIC ([7]; Escherichia coli, 18 h) | MIC ([8]; Escherichia coli, 18 h) | MIC ([9]; Escherichia coli, 18 h) | MIC ([10]; Escherichia coli, 18 h) | MIC ([11]; Escherichia coli, 18 h) | MIC ([12]; Escherichia coli, 18 h) | MIC ([13]; Escherichia coli, 18 h) | MIC ([14]; Escherichia coli, 18 h) | MIC ([15]; Escherichia coli, 18 h) | MIC ([16]; Escherichia coli, 18 h) | MIC ([17]; Escherichia coli, 18 h) | MIC ([18]; Escherichia coli, 18 h) | MIC ([19]; Escherichia coli, 18 h) | MIC ([20]; Escherichia coli, 18 h) | MIC ([21]; Escherichia coli, 18 h) | MIC ([22]; Escherichia coli, 18 h) | MIC ([23]; Escherichia coli, 18 h) | MIC [24]
4.20 ± 0.25 Log10CFU/mL: bacterial content in the peritoneal lavage fluid [25]
S: susceptibility category (S/I/R) given with the MIC ([1]; E. coli ATCC 25922) | susceptibility category (S/I/R) given with the MIC ([2]; strain E01) | susceptibility category (S/I/R) given with the MIC ([3]; strain E02) | susceptibility category (S/I/R) given with the MIC ([4]; strain E03) | susceptibility category (S/I/R) given with the MIC ([5]; strain E04) | susceptibility category (S/I/R) given with the MIC ([6]; strain E05) | susceptibility category (S/I/R) given with the MIC ([7]; strain E06) | susceptibility category (S/I/R) given with the MIC ([8]; strain E07) | susceptibility category (S/I/R) given with the MIC ([9]; strain E08) | susceptibility category (S/I/R) given with the MIC ([10]; strain E09) | susceptibility category (S/I/R) given with the MIC ([11]; strain E10) | susceptibility category (S/I/R) given with the MIC ([12]; strain E11) | susceptibility category (S/I/R) given with the MIC ([13]; strain E12) | susceptibility category (S/I/R) given with the MIC ([14]; strain E13) | susceptibility category (S/I/R) given with the MIC ([15]; strain E14) | susceptibility category (S/I/R) given with the MIC ([16]; strain E15) | susceptibility category (S/I/R) given with the MIC ([17]; strain E16) | susceptibility category (S/I/R) given with the MIC ([18]; strain E17) | susceptibility category (S/I/R) given with the MIC ([19]; strain E18) | susceptibility category (S/I/R) given with the MIC ([20]; strain E19) | susceptibility category (S/I/R) given with the MIC ([21]; strain E20) | susceptibility category (S/I/R) given with the MIC ([22]; strain E21) | susceptibility category (S/I/R) given with the MIC ([23]; strain E22)
